PMC7112612 (The Journal of Infection, 2013)
Converted amounts (≈) assume the structure as drawn. “And” between values parts separate entries of the source, which are not always exact repeats. Equal entries are not always repeated. “Also recorded” adds a separate entry of the source. Structures can show the parent of a compound that is named as a salt. Where two headings read alike, the source gives them in different places.

B1: Betaferon (protein, UniProt P01574 22-187, looked up, variant C17S)
Interferon beta: MSYNLLGFLQRSSNFQSQKLLWQLNGRLEYCLKDRMNFDIPEEIKQLQQFQKEDAALTIYEMLQNIFAIFRQDSSSTGWNETIVENLLANVYHQINHLKTVLEEKLEKEDFTRGKLMSSLHLKRYYGRILHYLKAKEYSHCAWTIVRVEILRNFYFINRLTGYLRN
modifications: lacks N-terminal Met1
B2: Imukin (protein, UniProt P01579 24-161, looked up)
Interferon gamma: QDPYVKEAENLKKYFNAGHSDVADNGTLFLGILKNWKEESDRKIMQSQIVSFYFKLFKNFKDDQSIQKSVETIKEDMNVKFFNSNKKKRDDFEKLTNYSVTDLNVQRKAIHELIQVMAELSPAAKTGKRKRSQMLFRG

Assays:
[1] = in vivo, cited from earlier work
MDCK cells = conditions: dog
[2] = tested on: influenza A/WSN/1933 (H1N1) virus; assay: microbe, parasite or virus in culture; format: cell-based; conditions: for EC50: Influenza A virus, H1N1|WSN, MDCK
MERS-CoV [3] = format: cell-based
MERS-CoV [4] = assay: microbe, parasite or virus in culture; format: cell-based
uninfected MDCK cells = conditions: cited from earlier work
in vitro = conditions: African green monkey
MERS-CoV [5] = format: cell-based; remark: listed apart in the source
SARS-CoV = conditions: mouse, in vivo; cited from earlier work
[6] = Middle East respiratory syndrome-related coronavirus, Vero

Molecule | Serum concentration ([1]; po) | TC50 (MDCK cells) | Result of chemical library screening [2] | Selectivity index [2] | EC50 [2] | anti-MERS-CoV activity at the tested concentrations (in words) (MERS-CoV [3]) | other results
CCc1nc(N)nc(N)c1-c1ccc(Cl)cc1 [Pyrimethamine] | 0.55 [1500/75 mg of sulfadoxine/pyrimethamine] μg/ml | 5.40 µM | primary hits with protective results | 1.80 | 3.1 µM | – | –
O=C(O)c1ccccc1Nc1cccc(C(F)(F)F)c1 [Flufenamic acid] | 6–20 [200 mg] μg/ml | 79.16 µM | primary hits with protective results | 12.60 | 6.3 µM | – | –
Cc1cccc(C)c1OCC(=O)N[C@@H](Cc1ccccc1)[C@@H](O)C[C@H](Cc1ccccc1)NC(=O)[C@H](C(C)C)N1CCCNC1=O [lopinavir] | – | – | – | – | – | suboptimal EC50; also recorded: not found to be active | –
Sc1ncnc2nc[nH]c12 [Mercaptopurine] | 0.09 [50 mg/m^2] μg/ml | 100.00 µM | primary hits with protective results | 4.00 | 26.5 µM | – | –
Cc1ccc(Cl)c(Nc2ccccc2C(=O)O)c1Cl [Meclofenamate sodium] | 4.8 [100 mg tds] μg/ml | 100.00 µM | primary hits with protective results | 2.00 | 45 µM | – | –
C[C@]12CC[C@@H]3c4ccc(O)cc4CC[C@H]3[C@@H]1CC[C@@H]2O [Estradiol] | – | 75.00 µM | primary hits with protective results | 3.00 | 20 µM | – | –
Cc1cccc(Nc2ccccc2C(=O)O)c1C [Mefenamic acid] | 10 [1 g] μg/ml | 200.00 µM | primary hits with protective results | 4.00 | 50 µM | – | –
Cc1c(Cl)cccc1Nc1ccccc1C(=O)O [Tolfenamic acid] | 4.1 [300 mg] μg/ml | 64.00 µM | primary hits with protective results | 8.00 | 7.94 µM | – | –
Cc1c(O)cccc1C(=O)N[C@@H](CSc1ccccc1)[C@H](O)CN1C[C@H]2CCCC[C@H]2C[C@H]1C(=O)NC(C)(C)C [nelfinavir mesylate hydrate] | – | – | – | – | – | suboptimal EC50 | –
NC(=O)c1ncn([C@@H]2O[C@H](CO)[C@@H](O)[C@H]2O)n1 [Ribavirin] | 2.2 [4 weeks of 600 mg bd] μg/ml | 168.00 µM | primary hits with protective results | 8.00 | 20 µM | showed anti-MERS-CoV activity | peak concentration ([1]; iv): approximately 24 μg/ml; EC99 (MERS-CoV [4]): 183.17 ± 11.97 µg/mL; Selectivity index (MERS-CoV [4]): >152.98; reduction in viral load (MERS-CoV [4]): > 2 log; EC50 (MERS-CoV [4]; [6]): 9.99 ± 2.97 µg/mL (≈ 40.9 µM); EC90 (MERS-CoV [4]; [6]): 107 ± 11.2 µg/mL (≈ 438 µM); concentration inhibiting replication of uninfected MDCK cells (uninfected MDCK cells): ≥ 10 µg/mL; CC50 (in vitro): > 1600 µg/mL; concentration achieving 100% plaque reduction (MERS-CoV [5]): 400 µg/mL
CC[C@H]1CN2CCc3cc(OC)c(OC)cc3[C@@H]2C[C@@H]1C[C@H]1NCCc2cc(OC)c(OC)cc21 [Emetine] | – | 17.00 µM | primary hits with protective results | – | 14.7 µM | – | –
COc1c(C)c2c(c(O)c1C/C=C(\C)CCC(=O)O)C(=O)OC2 [Mycophenolic acid] | – | 170.00 µM | primary hits with protective results | – | – | showed anti-MERS-CoV activity | EC99 (MERS-CoV [4]): 4.86 ± 0.57 µg/mL; Selectivity index (MERS-CoV [4]): >195.12; reduction in viral load (MERS-CoV [4]): > 2 log; EC50 (MERS-CoV [4]; [6]): 0.17 ± 0.03 µg/mL (≈ 0.531 µM); EC90 (MERS-CoV [4]; [6]): 2.61 ± 0.34 µg/mL (≈ 8.15 µM); reduction in viral load (MERS-CoV [4]; at 16 μg/ml): ~4 log; efficacy against SARS-CoV in an animal model (in words) (SARS-CoV): ineffective; concentration at which CPE was completely absent (MERS-CoV [3]): ≥ 0.063 µg/mL; CC50 (in vitro): > 32 µg/mL; concentration achieving 100% plaque reduction (MERS-CoV [5]): 6.4 µg/mL
COc1c(C)c2c(c(O)c1C/C=C(\C)CCC(=O)OCCN1CCOCC1)C(=O)OC2 [Mycophenolate mofetil] | – | – | – | – | – | – | average plasma elimination half-life ([1]; iv, 1500 mg): 16.6 h; average plasma elimination half-life ([1]; po, 1000 mg): 17.9 h
NC12CC3CC(CC(C3)C1)C2 [Amantadine] | – | – | not identified | – | – | – | –
B1 | – | – | – | – | – | showed anti-MERS-CoV activity | mean peak serum concentration [1]: 40 IU/ml; EC50 (MERS-CoV [4]): 17.64 IU/ml and 17.64 ± 1.09 IU/ml; EC90 (MERS-CoV [4]): 93.31 ± 10.07 IU/ml; EC99 (MERS-CoV [4]): 135.70 ± 15.96 IU/ml; CC50 (Vero cells): 3125 IU/ml; maximum percentage of plaque reduction (MERS-CoV [5]): 66.6%; plaque reduction (MERS-CoV [5]): 40–50%
B2 | – | – | – | – | – | suboptimal EC50 | –
